Results as given in PMC12153356, “An antisense oligomer conjugate with unpredicted bactericidal activity against Fusobacterium nucleatum” (mBio, 2025).
Entries after “also recorded” stand apart in the source; their conditions may differ.

Key:
[1] = tested on: F. nucleatum subsp. nucleatum ATCC 23726 (FNN23); assay: MIC determination and growth inhibition assay (broth microdilution, OD600 over time); format: cell-based, Fusobacterium nucleatum subsp. nucleatum ATCC 23726; conditions: for Growth inhibition of FNN23: 10 µM compound, 1 × 10^5 CFU/mL, growth inhibition = no visible growth (OD600 <0.01) after 120 h
Description: To test CPP-PNA conjugates for growth inhibition, we diluted mid-exponential phase cultures of FNN23 to 1 × 10^5 colony forming units (CFUs) per milliliter in Mueller-Hinton Broth (MHB) and incubated the diluted bacteria with 10 µM of either (KFF)3K- or (RXR)4XB- conjugated PNAs targeting acpP, ftsZ or gyrA. Growth was monitored over time by OD600 measurements, with growth inhibition defined as no visible growth (OD600 <0.01) after 120 h. […] Based on these findings, we conclude that CPP-PNAs targeting fusobacterial mRNAs are not effective in antisense inhibition.
(§1) The following fusobacterial strains were used in this study: Fusobacterium nucleatum subsp. nucleatum ATCC 23726 (FNN23) acquired from the American Type Culture Collection (ATCC), F. nucleatum subsp. nucleatum ATCC 25586 (FNN25), F. nucleatum subsp. vincentii ATCC 49256 (FNV), and F. nucleatum subsp. polymorphum ATCC 10953 (FNP) acquired from the German Collection of Microorganisms and Cell Culture (DSMZ), F. nucleatum subsp. animalis 7_1 (FNA) and F. periodonticum 2_1_31 (FPE) both received as a kind gift from E. Allen-Vercoe (University of Guelph, Canada). All strains were routinely grown at 37°C in 80:10:10 (N2:H2:CO2) anaerobic conditions on 2% agar supplemented BHI plates (BHI, 1% [wt:vol] dried yeast extract, 1% [vol:vol] 50% sterile-filtered glucose solution, 5 µg/mL of hemin; 1% [vol:vol] fetal bovine serum) from frozen 20% glycerol stocks kept at −80°C. For liquid growth, the strains were cultured in Columbia broth (ColB; BD Difco). Precultures were prepared 24 h before inoculating the working culture at a 1:50 dilution in fresh ColB until OD600 0.5 was reached. Cultures were then diluted in non-cation adjusted Mueller-Hinton Broth (MHB, BD Difco) to the desired CFU/mL number. P. gingivalis (DSM 20709) was purchased from DSMZ and grown at 37°C in anaerobic conditions as mentioned above on 2% agar supplemented BHI+ plates (BHI, 1% [wt:vol] dried yeast extract, 1% [vol:vol] 50% sterile filtered glucose solution, 5 µg/ml of hemin; 10% [vol:vol] fetal bovine serum; and 1 µg/mL vitamin K3) for 4 days. For liquid growth, P. gingivalis was cultured in BHI+ medium (BHI, BD Difco supplemented with 1% [vol:vol] 50% sterile-filtered glucose solution, 5 µg/mL of hemin; 1% [vol:vol] fetal bovine serum, and 1 µg/mL vitamin K3). Precultures were prepared 24 h before inoculating the working culture at a 1:20 dilution in BHI+ until OD600 of 0.5 was reached. All plates, media, buffers, and reagents were brought into the anaerobic chamber the day before usage to ensure full oxygen depletion.
To determine the MIC value, broth microdilutions were performed according to the standard protocol with some modifications ([119]). An overnight bacterial culture was diluted in a fresh ColB medium and grown to OD600 0.5 (mid-exponential phase). […] To determine the growth inhibition of P. gingivalis, an o.n. culture grown in BHI+ was diluted 1:1,500 in MHB to obtain 1 × 10^5 CFU/mL. E. coli K12, E. coli Nissle 1917, and S. enterica o.n. cultures grown in MHB were diluted 1:1,800 in fresh MHB to obtain 1 × 10^5 CFU/mL. In total, 190 µL of diluted bacterial cultures were pipetted into a transparent 96-well plate (Nunc, Thermo Fischer Scientific) together with 10 µL of respective 20× CPP or CPP-PNA stock or water as control. Bacterial growth was monitored by measuring OD600 every 20 min with constant shaking in a plate reader (Biotek) under the normal atmospheric environment or positioned in the anaerobic chamber with double orbital shaking every 20 min prior to each measurement with 237 cpm at 37°C for 120 h.

[2] = tested on: F. periodonticum 2_1_31 (FPE); assay: Growth inhibition assay; format: cell-based, Fusobacterium periodonticum 2_1_31; conditions: 10 µM, MHB, 1 × 10^5 CFU/mL input, three replicates
Source text: as §1, with “For liquid growth, P. gingivalis was cultured in BHI+ medium (BHI, BD Difco supplemented with 1% [vol:vol] 50% sterile-filtered glucose solution, 5 µg/mL of hemin; 1% [vol:vol] fetal bovine serum, and 1 µg/mL vitamin K3). Precultures were prepared 24 h before inoculating the working culture at a 1:20 dilution in BHI+ until OD600 of 0.5 was reached. All plates, media, buffers, and reagents were brought into the anaerobic chamber the day before usage to ensure full oxygen depletion.” left out
To determine the MIC value, broth microdilutions were performed according to the standard protocol with some modifications ([119]). […] Bacterial growth was monitored by measuring OD600 every 20 min with constant shaking in a plate reader (Biotek) under the normal atmospheric environment or positioned in the anaerobic chamber with double orbital shaking every 20 min prior to each measurement with 237 cpm at 37°C for 120 h.

E. coli K12 MG1655 = assay: Growth inhibition assay; format: cell-based, Escherichia coli K12; conditions: 10 µM, MHB, 1 × 10^5 CFU/mL input, aerobic, 24 h
Description: (§2) Aerobic bacterial culture was conducted with E. coli K12 MG1655 (provided by D. Lee), E. coli Nissle 1917, and S. enterica serovar Typhimurium SL1344 (provided by D. Bumann, Biocenter Basel, Switzerland). The strains were streaked on lysogeny broth plates, incubated o.n. at 37°C and cultured in non-cation-adjusted MHB with aeration at 37°C and 220 rpm constant shaking.
(§3) To determine the MIC value, broth microdilutions were performed according to the standard protocol with some modifications ([119]). An overnight bacterial culture was diluted in a fresh ColB medium and grown to OD600 0.5 (mid-exponential phase). Fusobacteria were then diluted 1:2,500 or 1:250 in fresh MHB to obtain 1 × 10^5 CFU/mL or 1 × 10^6 CFU/mL as indicated. To determine the growth inhibition of P. gingivalis, an o.n. culture grown in BHI+ was diluted 1:1,500 in MHB to obtain 1 × 10^5 CFU/mL. E. coli K12, E. coli Nissle 1917, and S. enterica o.n. cultures grown in MHB were diluted 1:1,800 in fresh MHB to obtain 1 × 10^5 CFU/mL. […] Bacterial growth was monitored by measuring OD600 every 20 min with constant shaking in a plate reader (Biotek) under the normal atmospheric environment or positioned in the anaerobic chamber with double orbital shaking every 20 min prior to each measurement with 237 cpm at 37°C for 120 h.

[3] = tested on: Salmonella enterica serovar Typhimurium SL1344; assay: Growth inhibition assay; format: cell-based; conditions: 10 µM, MHB, 1 × 10^5 CFU/mL input, aerobic, 24 h
Description: as §2, §3

Substance | Growth inhibition of FNN23 ([1]; MHB) | Effect on FNN23 at higher inoculum ([1]; 10 µM, 10^7 CFU/mL in MHB (Fig. S3B)) | Growth inhibition of FNN23 by further batches of FUS79 ([1]; batch reordered from original vendor and in-house synthesis, MHB, 1 x 10^5 CFU per ml (Fig. S2A and B)) | MIC of FUS79 ([1]; dilution series, FNN23 in MHB at 1 × 10^5 CFU/mL input, anaerobic, 37°C, OD600 <0.01, three replicates (Fig. 3A)) [µM] | Effect on FNN23 in brain heart infusion (BHI) ([1]; peptide-rich medium BHI, 1 x 10^5 CFU per ml input (Fig. S3C)) | Effect on FNN23 in Columbia broth (ColB) ([1]; peptide-rich medium ColB, 1 x 10^5 CFU per ml input (Fig. S3C)) | Growth inhibition of FPE [2] | Growth inhibition of E. coli K12 (E. coli K12 MG1655) | Effect on growth of S. enterica [3]
(RXR)4XB-GACATAATTGT [FUS79, non-targeting (RXR)4XB-PNA 11-mer control, (RXR)4XB-…] | completely inhibited growth; also recorded: inhibited the growth | no longer bactericidal | Both batches confirmed the FUS79-mediated growth inhibition | 10 | no effect | no effect | inhibited the growth | no growth inhibition | no specific bactericidal effect
RXRRXRRXRRXRXB [PNAscr] | no impact on growth | – | – | – | – | – | growth retardation compared with the water control | no growth inhibition | –
